Patent publication US5990083A, “Multicatalytic protease inhibitors” (Cephalon, Inc., priority 1997, dated 1999)

Experiments:
[1] = test system: processing of electroporated OVA by M12.B6 cells; assay: Inhibition of MHC-I processing of electroporated OVA; type: cell-based, mouse; details: FIGS. 2 and 3, IL-2 secretion by T hybridoma cells
Procedure: Compounds of the invention were assayed for the ability to inhibit the processing of exogenous OVA antigen by the class I major histocompatibility pathway (MHC-I). The MCP inhibitors were applied to a functional antigen processing system that allows inclusion of the inhibitor within the antigen processing cell during exposure to antigen, followed by fixation of the processing cell. T cell hybridomas are then added to the processing cells in the absence of inhibitor to determine the expression of peptide-MHC-I complexes, which reflects antigen processing prior to fixation.
Cells were grown at 37° C. in a humidified atmosphere maintained at 5% CO2 in a standard medium: DMEM (Gibco, St. Louis, Mo.) with 10% fetal calf serum (Hyclone, Logan Utah), 5×10^-5 M 2-mercaptoethanol, antibiotics and the following supplements: L-arginine HCl (116 mg/L), L-asparagine (36 mg/L), NaHCO3 (2 g/L), sodium pyruvate (1 mM). See also Harding, C. V., (1992) Eur. J. Immunol. 22: 1865-1869. […]
Electroporation was performed with a Gibco BEL Electroporator using 0.4 cm gap cuvette chambers. […] The extent of processing, (i.e., the level of specific peptide-MHC complexes expressed) was determined by the ability of the M12.B6 cells to stimulate IL-2 secretion by B3.1 or DOBW T hybridoma cells. […]

[2] = test system: unweighting atrophy of the soleus muscle; assay: Inhibition of unweighting atrophy of the soleus muscle in juvenile rats (muscle protein content); type: in vivo, rat; details: for Protein, End (day 3 of unweighting) / Effect (%), change in protein content during day 3 of unweighting: Table 2; for Protein, End (day 3 of unweighting): 24 hours after in situ soleus injection at day 2 of unweighting, mersalyl 200 nM aqueous; for Protein, End (day 3 of unweighting) / Protein, Treatment (unweighted muscle): MCP inhibitor 1 mM in DMSO; for Effect (%), change in protein content during day 3 of unweighting: End versus Start (estimated day 2 content); for Effect (%) on unweighted muscle protein / Protein, Treatment (unweighted muscle): Table 3; for Effect (%) on unweighted muscle protein: Treatment versus Vehicle contralateral muscle; for Protein, Treatment (unweighted muscle): treated soleus, contralateral muscle received vehicle, mersalyl 200 nM
Procedure: The effect of several inhibitors on the unweighting atrophy of the soleus muscle in juvenile rats was determined. See Tischler, M. E. (1990) Metabolism 39/7: 756-763 (hereinafter "Tischler--1990") for a general discussion of the procedure.
Juvenile female Sprague-Dawley rates (80-90 g) were tail-cast, hind limb suspended as in Jetspers, S. R. and Tischler, M. E., (1984) J. Appl. Physiol. 57: 1472-1479. The animal's hind limbs were elevated above the floor of the cage with each animal housed individually. Animals had free access to food and water, and were weighed at the time of suspension and at time of termination. During the suspension period the animals were checked daily to ensure that their toes were not touching the floor of the cage, and that there was no swelling of the tail due to the cast.
Each experiment began with the suspension of 20 rats which were randomly divided into 4 groups of 5 animals each. Group A was suspended for just 2 days and provided baseline data to approximate the soleus muscle size in other animals suspended for longer times. Average body weights for the groups at the outset of the study were compared and used as a correction factor for body size differences. […] See Tischler--1990. At 2 days after unweighting commenced, an aqueous solution of mersalyl (200 nM; 4 μl/100 g initial body wt) was injected into one soleus, as described previously. The contralateral muscle was injected with a similar volume of 0.9% saline ("Vehicle"). The animals were maintained under Innovar-vet (10 μl/100 g body wt) tranquilization during the in situ injection procedure. After the injections, the animals were suspended for an additional 24 hours and the soleus was removed. Groups C and D for each experiment were used for testing each of two different embodiments of the disclosed compounds.
Animals were treated as in group B, except that 1 mM MCP inhibitor, contained in dimethysulfoxide (DMSO), was injected into the soleus of one leg and DMSO only into the contralateral soleus. Thus each experiment consisted of two control groups and the testing of MCP inhibitors of the invention. The completion of five such experiments with different pairs of inhibitors provided for an "n" value of 10 for testing each MCP inhibitor and with each tested in two different shipments of animals.
After the animal was sacrificed, the soleus was excised, trimmed of fat and connective tissue, and carefully weighed. The muscle was then homogenized in 10% trichloroacetic acid (TCA) and the precipitated protein pelleted by centrifugation. The pellet was then washed once with 10% TCA and once with ethanol:ether (1:1). The final pellet was solubilized in 4 ml of 1N sodium hydroxide. The sample was then analyzed for protein content by the biuret procedure, using albumin as a standard.
The effect of MCP inhibitors on total muscle protein content was examined primarily by paired comparison with the untreated contralateral muscle. The ratio of contents was calculated and then analyzed statistically by analysis of variance ("ANOVA"). The left leg was always the treated leg so that the protein content ratios could be compared to the non-treated control animals as well. In this way, a significant difference can be shown by comparing the protein content of the two legs, as well as the relative effectiveness of the tested MCP inhibitors. A paired student test was also performed for the effect of each separate treatment. The non-treated control data also provided an estimate of protein content of day 2. This allowed approximation of the protein changes over the 24 hours of treatment for each of the Groups B, C, and D.

Row | SMILES | Effect on MHC-1 OVA processing [1] | Protein, End (day 3 of unweighting) [2] [mg/muscle] | Effect (%), change in protein content during day 3 of unweighting [2] [%] | Effect (%) on unweighted muscle protein [2] [%] | Protein, Treatment (unweighted muscle) [2] [mg/muscle]
1 | CC(C)C[C@@H](C=O)NC(=O)[C@H](CCCNC(=N)N[N+](=O)[O-])NC(=O)C(CCCCCCCCC#N)C1CCCC1 (stereo partly drawn) [Compound 14, 10-cyano-2-cyclopentyldecanoyl-N^g-nitro-L-arginyl-L-leucinal] | effectively inhibit OVA processing | 6.4 | 0 | 7 | 6.4
2 | COC(=O)CCCCCCCC(C(=O)N[C@@H](CCCNC(=N)NS(=O)(=O)c1c(C)c(C)c2c(c1C)CCC(C)(C)O2)C(=O)N[C@H](C=O)CC(C)C)C1CCCC1 (stereo partly drawn) [Compound 20, 9-Methoxycarbonyl-2-cyclopentyl-nonanoyl-N^g-(2,2,5,7,8-pentamethylchroman-6-sulfonyl)-L-arginyl-L-leucinal] | effectively inhibit OVA processing | 6.2 | -4 | 5 | 6.2
